Test system: cancer cell lines
Test: Cancer cell proliferation activity of representative nucleosides, CellTiterGlo 72 h (Example 7, Tables 8 and 9)
Format: cell-based
Procedure, shortened: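 Percent viability was set against 0.1% DMSO (100%) and 10 μM staurosporine (0%), with signal from CellTiterGlo luminescence. Dose-response treatment began one day after seeding and lasted 72 h at 37° C under 5% or 10% CO2, with 0.1% final DMSO.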

Nc1ccn([C@H]2C[C@H](O)[C@](CO)(CF)O2)c(=O)n1 [compound 32]
IC50 (72 h, 5637, 72 h (Table 9)): 0.45 µM | IC50 (72 h, CLS439, 72 h (Table 9)): 2.27 µM | IC50 (72 h, HS729, 72 h (Table 9)): 0.58 µM | IC50 (72 h, J82, 72 h (Table 9)): 0.76 µM | IC50 (72 h, JAR, 72 h (Table 9)): > 50 µM | IC50 (72 h, MT3, 72 h (Table 9)): 0.08 µM | IC50 (72 h, PC3, 72 h (Table 9)): 0.18 µM | IC50 (72 h, RD, 72 h (Table 9)): 1.03 µM | IC50 (72 h, T24, 72 h (Table 9)): 0.29 µM | IC50 (Homo sapiens, 22Rv1, 72 h, 22RV1, 72 h (Table 9)): 1.33 µM | IC50 (Homo sapiens, 786-0, 72 h, 786O, 72 h (Table 9)): 1.07 µM | IC50 (Homo sapiens, A204, 72 h, A204, 72 h (Table 9)): 0.02 µM | IC50 (Homo sapiens, A549, 72 h, A549, 72 h (Table 9)): 0.44 µM | IC50 (Homo sapiens, A673, 72 h, A673, 72 h (Table 9)): 1.74 µM | IC50 (Homo sapiens, A2780, 72 h, A2780, 72 h (Table 9)): 0.72 µM | IC50 (Homo sapiens, A-375, 72 h, A375, 72 h (Table 9)): 0.71 µM | IC50 (Homo sapiens, A-431, 72 h, A431, 72 h (Table 9)): 0.47 µM | IC50 (Homo sapiens, ACHN, 72 h, 72 h (Table 9)): 0.39 µM | IC50 (Homo sapiens, ASPC1, 72 h, ASPC1, 72 h (Table 9)): 0.58 µM | IC50 (Homo sapiens, BT-20, 72 h, BT20, 72 h (Table 9)): 0.58 µM | IC50 (Homo sapiens, BXPC-3, 72 h, BXPC3, 72 h (Table 9)): 0.54 µM | IC50 (Homo sapiens, C-33-A, 72 h, C33A, 72 h (Table 9)): 0.24 µM | IC50 (Homo sapiens, CAKI-1, 72 h, CAKI1, 72 h (Table 9)): 0.11 µM | IC50 (Homo sapiens, COLO 205, 72 h, COLO205, 72 h (Table 9)): 0.21 µM | IC50 (Homo sapiens, COLO-678, 72 h, COLO678, 72 h (Table 9)): 3.76 µM | IC50 (Homo sapiens, Ca-Ski, 72 h, CASKI, 72 h (Table 9)): 3.96 µM | IC50 (Homo sapiens, Caco-2, 72 h, CACO2, 72 h (Table 9)): > 50 µM | IC50 (Homo sapiens, Calu-6, 72 h, CALU6, 72 h (Table 9)): 0.72 µM | IC50 (Homo sapiens, DLD-1, 72 h, DLD1, 72 h (Table 9)): 2.65 µM | IC50 (Homo sapiens, DU-145, 72 h, DU145, 72 h (Table 9)): 0.31 µM | IC50 (Homo sapiens, EFO-21, 72 h, EFO21, 72 h (Table 9)): 0.79 µM | IC50 (Homo sapiens, EJ-28, 72 h, EJ28, 72 h (Table 9)): 1.53 µM | IC50 (Homo sapiens, Granta-519, 72 h, GRANTA-519, 72 h (Table 9)): 0.07 µM | IC50 (Homo sapiens, HCT-15, 72 h, HCT15, 72 h (Table 9)): 0.46 µM | IC50 (Homo sapiens, HCT-116, 72 h, HCT116, 72 h (Table 9)): 0.47 µM | IC50 (Homo sapiens, HEK293, 72 h, HEK293, 72 h (Table 9)): > 50 µM | IC50 (Homo sapiens, HL-60, 72 h, HL-60, 72 h (Table 9)): 1.01 µM | IC50 (Homo sapiens, HT-29, 72 h, HT29, 72 h (Table 9)): 1.27 µM | IC50 (Homo sapiens, HT-1080, 72 h, HT1080, 72 h (Table 9)): 0.38 µM | IC50 (Homo sapiens, HeLa, 72 h, 72 h (Table 9)): 1 µM | IC50 (Homo sapiens, HepG2, 72 h, HEPG2, 72 h (Table 9)): 1 µM | IC50 (Homo sapiens, Hs-578T, 72 h, HS578T, 72 h (Table 9)): 0.97 µM | IC50 (Homo sapiens, IGROV-1, 72 h, IGROV1, 72 h (Table 9)): 0.51 µM | IC50 (Homo sapiens, IMR-90, 72 h, IMR90, 72 h (Table 9)): 1.58 µM | IC50 (Homo sapiens, JEG-3, 72 h, JEG3, 72 h (Table 9)): 3.34 µM | IC50 (Homo sapiens, JIMT-1, 72 h, JIMT1, 72 h (Table 9)): 0.19 µM | IC50 (Homo sapiens, K562, 72 h, K-562, 72 h (Table 9)): 4.45 µM | IC50 (Homo sapiens, Kasumi 1, 72 h, KASUMI-1, 72 h (Table 9)): 0.27 µM | IC50 (Homo sapiens, L-363, 72 h, L-363, 72 h (Table 9)): > 50 µM | IC50 (Homo sapiens, LoVo, 72 h, 72 h (Table 9)): 0.29 µM | IC50 (Homo sapiens, MCF7, 72 h, MCF7, 72 h (Table 9)): 3.17 µM | IC50 (Homo sapiens, MDA-MB-231, 72 h, MDAMB231, 72 h (Table 9)): 0.1 µM | IC50 (Homo sapiens, MDA-MB-435, 72 h, MDAMB435, 72 h (Table 9)): 1.3 µM | IC50 (Homo sapiens, MDA-MB-436, 72 h, MDAMB436, 72 h (Table 9)): 0.95 µM | IC50 (Homo sapiens, MDA-MB-468, 72 h, MDAMB468, 72 h (Table 9)): 3.11 µM | IC50 (Homo sapiens, MG-63, 72 h, MG63, 72 h (Table 9)): 0.48 µM | IC50 (Homo sapiens, MHH-ES-1, 72 h, MHHES1, 72 h (Table 9)): 1.66 µM | IC50 (Homo sapiens, MIA PaCa-2, 72 h, MIAPACA2, 72 h (Table 9)): 1.15 µM | IC50 (Homo sapiens, MINO, 72 h, 72 h (Table 9)): 0.06 µM | IC50 (Homo sapiens, MV4-11, 72 h, MV4-11, 72 h (Table 9)): 0.84 µM | IC50 (Homo sapiens, NCI-H23, 72 h, NCI-H23, 72 h (Table 9)): 0.72 µM | IC50 (Homo sapiens, NCI-H82, 72 h, NCIH82, 72 h (Table 9)): 1.15 µM | IC50 (Homo sapiens, NCI-H292, 72 h, NCIH292, 72 h (Table 9)): 0.92 µM | IC50 (Homo sapiens, NCI-H460, 72 h, NCIH460, 72 h (Table 9)): 0.77 µM | IC50 (Homo sapiens, OVCAR-3, 72 h, OVCAR3, 72 h (Table 9)): 0.64 µM | IC50 (Homo sapiens, OVCAR-4, 72 h, OVCAR4, 72 h (Table 9)): 8.05 µM | IC50 (Homo sapiens, PANC-1, 72 h, PANC1, 72 h (Table 9)): 0.62 µM | IC50 (Homo sapiens, PLC-PRF-5, 72 h, PLCPRF5, 72 h (Table 9)): > 50 µM | IC50 (Homo sapiens, Panc1005, 72 h, PANC1005, 72 h (Table 9)): > 50 µM | IC50 (Homo sapiens, Ramos, 72 h, 72 h (Table 9)): 0.24 µM | IC50 (Homo sapiens, SAOS-2, 72 h, SAOS2, 72 h (Table 9)): 0.11 µM | IC50 (Homo sapiens, SF-268, 72 h, SF268, 72 h (Table 9)): 0.26 µM | IC50 (Homo sapiens, SF-295, 72 h, SF295, 72 h (Table 9)): 3.25 µM | IC50 (Homo sapiens, SK-BR-3, 72 h, SKBR3, 72 h (Table 9)): 0.26 µM | IC50 (Homo sapiens, SK-HEP1, 72 h, SKHEP1, 72 h (Table 9)): 0.32 µM | IC50 (Homo sapiens, SK-LMS-1, 72 h, SKLMS1, 72 h (Table 9)): 0.86 µM | IC50 (Homo sapiens, SK-MEL-5, 72 h, SKMEL5, 72 h (Table 9)): 6.18 µM | IC50 (Homo sapiens, SK-MEL-28, 72 h, SKMEL28, 72 h (Table 9)): 1.32 µM | IC50 (Homo sapiens, SK-N-AS, 72 h, SKNAS, 72 h (Table 9)): 1.22 µM | IC50 (Homo sapiens, SK-N-SH, 72 h, SKNSH, 72 h (Table 9)): > 50 µM | IC50 (Homo sapiens, SK-OV-3, 72 h, SKOV3, 72 h (Table 9)): 1.46 µM | IC50 (Homo sapiens, SNB-75, 72 h, SNB75, 72 h (Table 9)): 0.55 µM | IC50 (Homo sapiens, SU-DHL10, 72 h, SU-DHL-10, 72 h (Table 9)): 0.56 µM | IC50 (Homo sapiens, SU-DHL-6, 72 h, SU-DHL-6, 72 h (Table 9)): 0.31 µM | IC50 (Homo sapiens, SW-620, 72 h, SW620, 72 h (Table 9)): 1.14 µM | IC50 (Homo sapiens, TE-671, 72 h, TE671, 72 h (Table 9)): 1.02 µM | IC50 (Homo sapiens, THP-1, 72 h, THP-1, 72 h (Table 9)): 0.65 µM | IC50 (Homo sapiens, U2OS, 72 h, 72 h (Table 9)): 2.45 µM | IC50 (Homo sapiens, U-87 MG, 72 h, U87MG, 72 h (Table 9)): 0.4 µM | IC50 (Homo sapiens, UMUC3, 72 h, UMUC3, 72 h (Table 9)): 1.21 µM | IC50 (Homo sapiens, UO-31, 72 h, UO31, 72 h (Table 9)): 0.55 µM | IC50 (Homo sapiens, WSU-NHL, 72 h, 72 h (Table 9)): 0.15 µM | IC50 (NCI-H358M, 72 h, NCIH358M, 72 h (Table 9)): 0.12 µM | IC50 (PBMC, 72 h, 72 h (Table 9)): 0.71 µM | IC50 (RD-ES, 72 h, RDES, 72 h (Table 9)): 1.9 µM
